Laboratory results: BindingDB's records for doi:10.1021/jm960054c (Merck Research Laboratories, 1996)

Molecular target: Growth hormone secretagogue receptor type 1 (Sus scrofa)
Assay: Binding Affinity against Growth hormone secretagogue receptor of swine using [35S]MK-0677 as radioligand

Ki [nM]	Structure (SMILES)
63	CC(C)(N)CC(=O)N[C@@H]1CCc2ccccc2N(Cc2ccc(-c3ccccc3-c3nnn[nH]3)cc2)C1=O [3-Amino-3-methyl-N-{2-oxo-1-[2'-(1H-tetrazol-5-yl)-biphenyl-4-ylmethyl]-2,3,4,5-tetrahydro-1H-benzo[b]azepin-3-yl}-butyramide]
> 5000	CC(C)(N)CC(=O)N[C@H]1CCc2ccccc2N(Cc2ccc(-c3ccccc3-c3nnn[nH]3)cc2)C1=O [3-Amino-3-methyl-N-{(S)-2-oxo-1-[2'-(1H-tetrazol-5-yl)-biphenyl-4-ylmethyl]-2,3,4,5-tetrahydro-1H-benzo[b]azepin-3-yl}-butyramide]
